Measurements: PMC7356157, “Shorter Antibacterial Peptide Having High Selectivity for E. coli Membranes and Low Potential for Inducing Resistance” (Microorganisms, 2020)
Values after ≈ are worked out from the molar mass of the structure shown. Read-outs that look alike come from different tables or passages of the source. No end group written: not given here.

Columns and labels:
[1] = test system: E. coli clinical isolate 44; experiment: Resistance profile of clinical isolate (VITEK-2); type: cell-based; conditions: Escherichia coli, isolate from blood
Excerpt: (§1) Approximately 50 bacterial samples were then collected from E. coli-infected patients for evaluating activity of the peptides against some clinical isolates. These samples were identified and biochemically and metabolically characterised using the VITEK-2 equipment. Isolates were profiled regarding their resistance or susceptibility to a panel of conventionally used antibiotics.

[2] = test system: E. coli clinical isolate 4; experiment: Resistance profile of clinical isolate (VITEK-2); type: cell-based; conditions: Escherichia coli, isolate from urine
Excerpt: as §1

[3] = test system: E. coli clinical isolate 40; experiment: Resistance profile of clinical isolate (VITEK-2); type: cell-based; conditions: Escherichia coli, isolate from blood
Excerpt: as §1

E. coli ML35 = experiment: Permeabilising internal membrane (ONPG); type: cell-based; conditions: 1× MIC, ONPG, 405 nm, 4.5 h
P. aeruginosa 27853 = experiment: MIC by broth microdilution; type: cell-based; conditions: MHB, 18 h, 37 °C
[4] = test system: human red blood cells (hRBC); experiment: Haemolytic activity (MHC); type: cell-based; conditions: 5% v/v hRBC in 1X PBS, 200–0.39 µM, 1 h, 37 °C, absorbance 560 nm
Description: A haemolytic activity assay was used for determining whether peptides acted on hRBC membrane by calculating the minimum haemolytic concentration (MHC). Briefly, 100 µL serial dilutions of peptides were incubated in a 96-well plate with an equal volume of a fresh hRBC suspension at 5% v/v in 1X PBS (200–0.39 µM final peptide concentrations). The samples were spun at 1000× g for 5 min after having been incubated at 37 °C for 1 h and a Multiskan spectrometer (Thermo Fisher) was used for measuring 100 µL supernatant absorbance at 560 nm. Treated hRBC absorbance 0.1% Triton X-100 or 100% haemolysis was used as positive control.

E. coli ATCC 25922 [5] = type: cell-based; conditions: for MIC E. coli 25922: broth microdilution, MHB, ~5 × 10^5 CFU/mL, 18 h, 37 °C, OD 620 nm, 100 to 0.2 µM
E. coli ATCC 11775 = type: cell-based; conditions: broth microdilution
[6] = test system: E. coli 35218 (ampicillin-resistant ATCC 35218 strain); type: cell-based; conditions: broth microdilution
E. coli ML35 43827 [7] = experiment: Bactericidal activity (MBC); type: cell-based
Description: (§2) Bactericidal activity was evaluated by sowing an aliquot of Luria Bertani agar (LBA) in the wells where no growth had been detected in the MIC assay.

E. coli ATCC 25922 [8] = experiment: Bactericidal activity (MBC); type: cell-based; conditions: aliquots of no-growth MIC wells on LBA, 18 h, 37 °C; kills 99.9%
Description: as §2

[9] = test system: E. coli N°4 (clinical isolate); conditions: clinical isolate from urine, broth microdilution
Description: (§3) The standard broth microdilution method was used for determining the peptides’ MIC [41]. […] Bacteria in Müller–Hinton broth (MHB) were used as negative control. […] The MIC was determined as the lowest peptide concentration at which bacterial growth was not detected.
as §1

[10] = test system: E. coli N°44 (clinical isolate); conditions: clinical isolate from blood, ESBL (+), broth microdilution
Description: as §3, §1

[11] = test system: E. coli N°40 (clinical isolate); conditions: clinical isolate from blood, broth microdilution
Description: as §3, §1

E. coli [12] = test system: E. coli
Description: (§4) The checkerboard method was used for evaluating peptide antibacterial activity in combination with antibiotics [43]. […] Absorbance was measured at 620 nm and individual peptide and antibiotic MIC and combined MIC were obtained. […] The fractional inhibitory concentration index (FICI) was then calculated as the sum of peptide FIC + antibiotic FIC. A ≤ 0.5 FICI indicated synergy, 0.5 to ≤4 FICI indifference, and >4 FICI antagonism [45].
(§5) The results were interpreted by taking the lowest checkerboard FIC index (previously reported method 3) [44].

E. coli [13] = test system: E. coli; remark: listed apart in the source
Description: as §4, §5

E. coli ML35 43827 [14] = type: cell-based; conditions: broth microdilution
[15] = test system: E. coli N°44 (clinical isolate); type: cell-based
Description: as §2
Approximately 50 bacterial samples were then collected from E. coli-infected patients for evaluating activity of the peptides against some clinical isolates. These samples were identified and biochemically and metabolically characterised using the VITEK-2 equipment. Isolates were profiled regarding their resistance or susceptibility to a panel of conventionally used antibiotics. Three E. coli isolates having different resistance profiles were then selected following such characterisation (Appendix A): • Isolate 4 (from urine): extended spectrum beta-lactamase (ESBL) (-), resistant to ampicillin, quinolones and co-trimoxazole. • Isolate 40 (from blood): ESBL (-), resistant to ampicillin, 1st-generation cephalosporins and co-trimoxazole. • Isolate 44 (from blood): ESBL (+), resistant to aminoglycosides, quinolones, β-lactams (including 1st-, 3rd- and 4th-generation cephalosporins).

E. coli 25922 = experiment: Antibacterial activity in the presence of human sera; type: cell-based; conditions: peptide diluted in fresh human sera (100%), then inoculum in MHB ~5 × 10^5 CFU/mL, 18 h, 37 °C
Description: The second assay involved peptide dilution in fresh human sera (100%) pre-incubated for 6 h at 37 °C in a humid chamber before putting them in contact with the bacterial inoculum diluted in MHB (~5 × 10^5 CFU/mL). The assay was incubated and read as mentioned in the microdilution section.

E. coli 35218 = type: cell-based
Description: as §2

NCC[C@H](O)C(=O)N[C@@H]1C[C@H](N)[C@@H](O[C@H]2O[C@H](CN)[C@@H](O)[C@H](O)[C@H]2O)[C@H](O)[C@H]1O[C@H]1O[C@H](CO)[C@@H](O)[C@H](N)[C@H]1O [Amikacin]
MIC [1]: 32 mg/L (≈ 54.6 µM)
MIC [2]: ≤ 2 mg/L
MIC [3]: ≤ 2 mg/L

C[C@@H](O)[C@H]1C(=O)N2C(C(=O)O)=C(SCCN=CN)C[C@H]12 [Imipenem]
MIC [1]: ≤ 1 mg/L
MIC [2]: ≤ 1 mg/L
MIC [3]: ≤ 1 mg/L

cecropin P1 (SWLSKTAKKLENSAKKRISEGIAIAIQGGPR; UniProt P14661 14-44, looked up) [positive permeabilisation control peptide, reference compound]
permeabilisation of E. coli internal membrane (E. coli ML35): capable of inducing a high rate of permeabilisation for the first 30 min of incubation

RYRRKKKMKKALQY-NH2 [Peptide 35409-9]
MIC P. aeruginosa 27853 (P. aeruginosa 27853): >100 µM
MHC (minimum haemolytic concentration) [4]: >200 µM
MIC E. coli 25922 (E. coli ATCC 25922 [5]): >100 µM

MKKALQYIKLLKE-NH2 [Peptide 35409-5]
MIC P. aeruginosa 27853 (P. aeruginosa 27853): >100 µM
MHC (minimum haemolytic concentration) [4]: >200 µM
MIC E. coli 25922 (E. coli ATCC 25922 [5]): >100 µM

RYRRKKKMKK-NH2 [Peptide 35409-11]
MIC P. aeruginosa 27853 (P. aeruginosa 27853): >100 µM
MHC (minimum haemolytic concentration) [4]: >200 µM
MIC E. coli 25922 (E. coli ATCC 25922 [5]): >100 µM

KMKKALQY-NH2 [Peptide 35409-16]
MIC P. aeruginosa 27853 (P. aeruginosa 27853): >100 µM
MHC (minimum haemolytic concentration) [4]: >200 µM
MIC E. coli 25922 (E. coli ATCC 25922 [5]): >100 µM

KKMKKALQYIKL-NH2 [Peptide 35409-14]
MIC P. aeruginosa 27853 (P. aeruginosa 27853): >100 µM
MHC (minimum haemolytic concentration) [4]: 100 µM
MIC E. coli 25922 (E. coli ATCC 25922 [5]): >100 µM

RYRRKKKMKKA-NH2 [Peptide 35409-10]
MIC P. aeruginosa 27853 (P. aeruginosa 27853): >100 µM
MHC (minimum haemolytic concentration) [4]: >200 µM
MIC E. coli 25922 (E. coli ATCC 25922 [5]): >100 µM

YIKLLKE-NH2 [Peptide 35409-7]
MIC P. aeruginosa 27853 (P. aeruginosa 27853): >100 µM
MHC (minimum haemolytic concentration) [4]: >200 µM
MIC E. coli 25922 (E. coli ATCC 25922 [5]): >100 µM

KMKKALQYIKLLKE-NH2 [Peptide 35409-4]
MIC E. coli 11775 (E. coli ATCC 11775): >100 µM
MIC E. coli 35218 [6]: 25 µM
MBC E. coli ML35 43827 (E. coli ML35 43827 [7]): 50 µM
MBC E. coli 25922 (E. coli ATCC 25922 [8]): 100 µM
MIC E. coli N°4 [9]: >100 µM
MIC E. coli N°44 [10]: 100 µM
MIC E. coli N°40 [11]: >100 µM
MIC P. aeruginosa 27853 (P. aeruginosa 27853): >100 µM
MHC (minimum haemolytic concentration) [4]: >200 µM
FIC Index (E. coli [12]; peptide + gentamicin, lowest checkerboard FIC index (method 3)): 0.75
FIC P (peptide) (E. coli [12]; with gentamicin): 0.25
FIC Index (E. coli [13]; peptide + ciprofloxacin, lowest checkerboard FIC index (method 3)): 3
FIC P (peptide) (E. coli [13]; with ciprofloxacin): 1
MIC E. coli ML35 43827 (E. coli ML35 43827 [14]): 25 µM
MIC E. coli 25922 (E. coli ATCC 25922 [5]): 100 µM
MIC against E. coli 25922, MHB (E. coli ATCC 25922 [5]; no serum): 100 µM
MBC E. coli N°44 [15]: > 100 µM
MIC against E. coli 25922, Serum (without Pre-Incubation) (E. coli 25922): 100 µM
MBC E. coli 35218 (E. coli 35218): 50 µM

CC(C)(O/N=C(\C(=O)N[C@@H]1C(=O)N2C(C(=O)[O-])=C(C[n+]3ccccc3)CS[C@H]12)c1csc(N)n1)C(=O)O [Ceftazidime]
MIC [1]: ≥ 64 mg/L
MIC [2]: ≤ 1 mg/L
MIC [3]: ≤ 1 mg/L

CCn1cc(C(=O)O)c(=O)c2ccc(C)nc21 [Nalidixic acid]
MIC [1]: ≥ 32 mg/L
MIC [2]: ≥ 32 mg/L
MIC [3]: ≤ 2 mg/L
